In patent US20080279769A1, “Enzyme Inhibitor Imaging Agents” (priority 2004, published 2008):
Blank lines part the entries; values can stand above or below the compound they belong to.

Legend:
MMP-1 = molecular target: T1, MMP-1 (Homo sapiens, UniProt P03956); test: In vitro metalloproteinase inhibition assay (colorimetric, thiopeptolide substrate), MMP-1; assay type: biochemical
T1 sequence (P03956 100-469): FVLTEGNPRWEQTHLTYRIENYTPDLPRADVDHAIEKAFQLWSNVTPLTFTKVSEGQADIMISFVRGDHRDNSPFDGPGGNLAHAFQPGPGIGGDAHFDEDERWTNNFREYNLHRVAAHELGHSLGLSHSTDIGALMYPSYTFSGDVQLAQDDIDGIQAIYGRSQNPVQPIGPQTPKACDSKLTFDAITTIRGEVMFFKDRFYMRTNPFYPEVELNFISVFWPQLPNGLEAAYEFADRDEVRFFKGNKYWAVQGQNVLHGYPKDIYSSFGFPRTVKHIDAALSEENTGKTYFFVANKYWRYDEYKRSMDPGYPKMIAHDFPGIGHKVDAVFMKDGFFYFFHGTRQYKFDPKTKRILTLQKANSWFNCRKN
Description: [The source words this procedure for another target and reports this target under the same test.] (§1) Compounds were screened using the following commercially available Biomol assay kits:
(§2) MMP-2 colorimetric assay kit-Catalogue number AK-408, MMP-9 colorimetric assay kit-Catalogue number AK-410, MMP-12 colorimetric assay kit-Catalogue number AK-402, Which are available from Affiniti Research Products Ltd. (Palatine House, Matford Court, Exeter, EX2 8NL, UK).
(§3) Inhibitors were provided in powdered form, and stored at 4° C. For each inhibitor a 1 mM stock solution in DMSO was prepared, dispensed into 20 μl aliquots and these aliquots stored at −20° C. The stock solution was diluted to give 8 inhibitor concentrations (recommended: 50 μM, 5 μM, 500 mM, 50 mM, 5 nM, 500 μM, 50 μM and 5 μM). Dilutions were made in the kit assay buffer. A five-fold dilution of the inhibitor stocks is made on addition to the assay wells, therefore final concentration range was from 10 μM to 1 pM.
(§4) Details are provided with the commercial kit, but can be summarised as follows: • Prepare test compound dilutions as above, • Add assay buffer to plate, • Add test compounds to plate • Prepare standard kit inhibitor NNGH (see kit for dilution factor) • Add NNGH to control inhibitor wells • Prepare MMP enzyme (see kit for dilution factor) • Add MMP to plate • Incubate plate at 37° C. for ˜15 min • Prepare thiopeptolide substrate (see kit for dilution factor) • Add substrate to plate • Count every 2 min for 1 hr, 37° C., 414 nm on a Labsystems iEMS plate reader.

MMP-2 = MMP-2 (Homo sapiens, UniProt P08253); test: In vitro metalloproteinase inhibition assay (Biomol MMP-2 colorimetric assay kit); assay type: biochemical
Description: as §1
as §3, with “The stock solution was diluted to give 8 inhibitor concentrations (recommended: 50 μM, 5 μM, 500 mM, 50 mM, 5 nM, 500 μM, 50 μM and 5 μM).” left out

MMP-12 = MMP-12 (Homo sapiens, UniProt P39900); test: In vitro metalloproteinase inhibition assay (Biomol MMP-12 colorimetric assay kit); assay type: biochemical
Description: as §1, §2, §3, §4

MMP-9 = MMP-9 (Homo sapiens, UniProt P14780); test: In vitro metalloproteinase inhibition assay (Biomol MMP-9 colorimetric assay kit); assay type: biochemical
Description: as §1
as §3, with “The stock solution was diluted to give 8 inhibitor concentrations (recommended: 50 μM, 5 μM, 500 mM, 50 mM, 5 nM, 500 μM, 50 μM and 5 μM).” left out

ApoE ligation model = test: Biodistribution in ApoE ligated animal model of MMP expression; assay type: in vivo, mice; details: for Carotid: Blood / Carotid: Heart: ratio
From the text: The ApoE ligation model was also studied. ApoE mice are transgenic knock-out mice, which lack the ApoE gene, and are therefore unable to regulate their plasma cholesterol levels. As a consequence ApoE mice develop atherosclerotic lesions, a process which is accelerated with feeding of high fat diet. Further acceleration of lesion development can be achieved by ligating the carotid artery, resulting in advanced lesion formation within 4 weeks of surgery and high fat diet feeding. […] 105, 2686-2691 (2002)].

[1] = test system: Lewis Lung [LLC] Carcinoma Tumour model; test: Biodistribution in animal tumour model of MMP expression; assay type: in vivo; details: for % ID/g Tumour: 15 days tumour growth
From the text: The in vivo Lewis Lung [LLC] Carcinoma Tumour model has been used for screening of MMP is due to reproducible up-regulation of several MMPs in the tumour. As such, this model provides a good assessment of the efficacy of the MMP is for in vivo targeting of lesions that express MMPs. Literature reports have shown that LLC cells express pro and active MMP-2 and pro NMP-9 and LLC tumours MMP-2 and MMP-9 (not classified as pro or active) [Bae et al Drugs Exp Clin Res. 29(1):15-23 (2003)].

MMP-8 = MMP-8 (Homo sapiens, UniProt P22894); test: In vitro metalloproteinase inhibition assay (colorimetric, thiopeptolide substrate), MMP-8; assay type: biochemical
Description: [The source words this procedure for another target and reports this target under the same test.] as §1, §2
as §3, with “A five-fold dilution of the inhibitor stocks is made on addition to the assay wells, therefore final concentration range was from 10 μM to 1 pM.” left out
as §4

[2] = between 5 and 120 minutes post injection

Chain of MMP-12 (P39900 106-263 limits assumed): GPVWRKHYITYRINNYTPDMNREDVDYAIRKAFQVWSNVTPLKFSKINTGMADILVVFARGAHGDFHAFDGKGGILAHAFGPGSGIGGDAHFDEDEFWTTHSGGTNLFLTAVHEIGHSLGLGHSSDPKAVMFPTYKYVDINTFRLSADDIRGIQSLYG
Chain of MMP-9 (P14780 107-444 limits assumed): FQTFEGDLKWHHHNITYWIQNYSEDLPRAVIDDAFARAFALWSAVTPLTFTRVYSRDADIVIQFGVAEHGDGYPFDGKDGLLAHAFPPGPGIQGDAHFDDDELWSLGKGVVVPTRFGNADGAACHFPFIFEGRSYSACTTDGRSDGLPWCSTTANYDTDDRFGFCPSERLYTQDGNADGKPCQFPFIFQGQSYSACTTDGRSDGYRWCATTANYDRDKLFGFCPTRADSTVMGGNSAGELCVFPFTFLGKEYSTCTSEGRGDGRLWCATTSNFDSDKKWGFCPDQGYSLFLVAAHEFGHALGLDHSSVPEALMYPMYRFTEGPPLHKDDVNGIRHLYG
Chain of MMP-2 (P08253 110-446 limits assumed): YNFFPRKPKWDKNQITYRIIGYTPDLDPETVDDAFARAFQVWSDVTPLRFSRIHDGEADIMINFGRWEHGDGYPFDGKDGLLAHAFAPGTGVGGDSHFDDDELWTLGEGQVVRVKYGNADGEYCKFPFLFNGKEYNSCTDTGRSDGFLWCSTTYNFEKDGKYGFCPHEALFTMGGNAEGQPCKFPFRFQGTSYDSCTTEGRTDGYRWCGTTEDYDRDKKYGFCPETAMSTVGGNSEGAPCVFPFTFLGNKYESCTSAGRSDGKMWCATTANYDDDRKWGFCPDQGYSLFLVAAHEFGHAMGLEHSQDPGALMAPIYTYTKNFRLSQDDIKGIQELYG
Chain of MMP-8 (P22894 101-467): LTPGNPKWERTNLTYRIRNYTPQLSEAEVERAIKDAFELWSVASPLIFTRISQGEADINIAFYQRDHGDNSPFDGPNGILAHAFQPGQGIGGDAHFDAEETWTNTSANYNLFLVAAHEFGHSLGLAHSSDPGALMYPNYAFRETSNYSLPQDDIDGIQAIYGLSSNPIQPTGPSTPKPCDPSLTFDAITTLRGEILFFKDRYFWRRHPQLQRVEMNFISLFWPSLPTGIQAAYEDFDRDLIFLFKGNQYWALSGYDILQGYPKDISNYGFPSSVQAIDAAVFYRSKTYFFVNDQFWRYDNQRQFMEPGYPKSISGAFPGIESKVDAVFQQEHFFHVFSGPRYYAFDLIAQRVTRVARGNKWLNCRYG

Compound: CNC(=O)[C@H](Cc1ccc([123I])cc1)NC(=O)C[C@@H](CC(C)C)C(=O)NO [Compound 2A]
- % ID/g Blood (ApoE ligation model; 5 min post injection): 6.5 % ID/g
- % ID/g Carotid (ApoE ligation model; 5 min post injection): 3.3 % ID/g
- % ID/g Heart (ApoE ligation model; 5 min post injection): 5.5 % ID/g
- % ID/g Blood (ApoE ligation model; 120 min post injection): 1.5 % ID/g
- % ID/g Carotid (ApoE ligation model; 120 min post injection): 2.7 % ID/g
- % ID/g Heart (ApoE ligation model; 120 min post injection): 3.6 % ID/g
- % Retained Carotid (ApoE ligation model; 120 min post injection): 83%
- % ID/g Blood (ApoE ligation model; 360 min post injection): 1.6 % ID/g
- % ID/g Carotid (ApoE ligation model; 360 min post injection): 1.6 % ID/g
- % ID/g Heart (ApoE ligation model; 360 min post injection): 1.5 % ID/g
- % Retained Carotid (ApoE ligation model; 360 min post injection): 47%
- carotid uptake and retention (ApoE ligation model; [2]): exhibited carotid uptake and retention
- carotid to blood ratios (ApoE ligation model; mouse, in vivo): good
- clearance from normal tissues [e.g. blood and other background tissues] (ApoE ligation model; mouse, in vivo): significant
- Carotid: Blood (ApoE ligation model; 5 min post injection): 0.5
- Carotid: Heart (ApoE ligation model; 5 min post injection): 0.8
- Carotid: Blood (ApoE ligation model; 120 min post injection): 1.8
- Carotid: Heart (ApoE ligation model; 120 min post injection): 0.8
- Carotid: Blood (ApoE ligation model; 360 min post injection): 1.0
- Carotid: Heart (ApoE ligation model; 360 min post injection): 1.0
- % ID GI Excretion ([1]; 5 min post injection): 17.81 % ID
- % ID Heart ([1]; 5 min post injection): 0.86 % ID
- % ID Liver ([1]; 5 min post injection): 29.76 % ID
- % ID Lung ([1]; 5 min post injection): 1.38 % ID
- % ID Urinary Excretion ([1]; 5 min post injection): 19.85 % ID
- % ID/g Blood ([1]; 5 min post injection): 5.89 % ID/g
- % ID/g Tumour ([1]; 5 min post injection): 1.39 % ID/g
- % ID GI Excretion ([1]; 30 min post injection): 28.46 % ID
- % ID Heart ([1]; 30 min post injection): 0.57 % ID
- % ID Liver ([1]; 30 min post injection): 24.43 % ID
- % ID Lung ([1]; 30 min post injection): 0.73 % ID
- % ID Urinary Excretion ([1]; 30 min post injection): 22.52 % ID
- % ID/g Blood ([1]; 30 min post injection): 2.19 % ID/g
- % Retained Tumour ([1]; 30 min post injection): 78%
- % ID/g Tumour ([1]; 30 min post injection): 1.08 % ID/g
- % ID GI Excretion ([1]; 60 min post injection): 29.5 % ID
- % ID Heart ([1]; 60 min post injection): 0.56 % ID
- % ID Liver ([1]; 60 min post injection): 20.04 % ID
- % ID Lung ([1]; 60 min post injection): 0.59 % ID
- % ID Urinary Excretion ([1]; 60 min post injection): 27.7 % ID
- % ID/g Blood ([1]; 60 min post injection): 1.49 % ID/g
- % Retained Tumour ([1]; 60 min post injection): 87%
- % ID/g Tumour ([1]; 60 min post injection): 1.21 % ID/g
- % ID GI Excretion ([1]; 120 min post injection): 34.42 % ID
- % ID Heart ([1]; 120 min post injection): 0.49 % ID
- % ID Liver ([1]; 120 min post injection): 13.45 % ID
- % ID Lung ([1]; 120 min post injection): 0.45 % ID
- % ID Urinary Excretion ([1]; 120 min post injection): 31.03 % ID
- % ID/g Blood ([1]; 120 min post injection): 1.38 % ID/g
- % Retained Tumour ([1]; 120 min post injection): 97%
- % ID/g Tumour ([1]; 120 min post injection): 1.35 % ID/g
- clearance from normal tissues [e.g. blood and other background tissues] ([1]; between 5 and 120 minutes p.i.): occurred between 5 and 120 minutes p.i.
- tumour uptake and retention [1, 2]: exhibited tumour uptake and retention

Compound: CC(C)C[C@H](CC(=O)N[C@@H](C)C(=O)NCc1ccc([123I])cc1)C(=O)NO [Compound 18A]
- % ID/g Blood (ApoE ligation model; 5 min post injection): 7.3 % ID/g
- % ID/g Carotid (ApoE ligation model; 5 min post injection): 2.9 % ID/g
- % ID/g Heart (ApoE ligation model; 5 min post injection): 10.1 % ID/g
- % ID/g Blood (ApoE ligation model; 120 min post injection): 2.4 % ID/g
- % ID/g Carotid (ApoE ligation model; 120 min post injection): 1.0 % ID/g
- % ID/g Heart (ApoE ligation model; 120 min post injection): 2.6 % ID/g
- % Retained Carotid (ApoE ligation model; 120 min post injection): 34%
- % ID/g Blood (ApoE ligation model; 360 min post injection): 1.2 % ID/g
- % ID/g Carotid (ApoE ligation model; 360 min post injection): 0.8 % ID/g
- % ID/g Heart (ApoE ligation model; 360 min post injection): 1.0 % ID/g
- % Retained Carotid (ApoE ligation model; 360 min post injection): 26%
- Carotid: Blood (ApoE ligation model; 5 min post injection): 0.5
- Carotid: Heart (ApoE ligation model; 5 min post injection): 0.3
- Carotid: Blood (ApoE ligation model; 120 min post injection): 0.4
- Carotid: Heart (ApoE ligation model; 120 min post injection): 0.4
- Carotid: Blood (ApoE ligation model; 360 min post injection): 0.7
- Carotid: Heart (ApoE ligation model; 360 min post injection): 0.8

Compound: CC(C)CC(CC(=O)NO)C(=O)NC(Cc1c[nH]c2ccccc12)C(=O)NCCOCCOCCOCCOCCOCCOCCOCCOCCOCCOCCOCCOCCC(=O)NCc1ccc(I)cc1 (stereo not shown) [Compound 16]
- Ki (MMP-1): 18 ± 1.69 nM
- Ki (MMP-2): 0.61 ± 0.16 nM
- Ki (MMP-12): 0.4 ± 0.09 nM
- Ki (MMP-9): 0.5 ± 0.42 nM

Compound: CC(C)CC(CC(=O)NC(Cc1c[nH]c2ccccc12)C(=O)NCCOCCOCCOCCOCCOCCOCCOCCOCCOCCOCCOCCOCCC(=O)NCc1ccc(I)cc1)C(=O)NO (stereo not shown) [Compound 14]
- Ki (MMP-1): 2.68 ± 0.19 nM
- Ki (MMP-8): 0.082 nM
- Ki (MMP-2): 0.21 ± 0.05 nM
- Ki (MMP-12): 0.51 nM
- Ki (MMP-9): 0.04 ± 0.03 nM

Compound: CNC(=O)C(CCC(=O)NCCOCCOCCOCCOCCOCCOCCOCCOCCOCCOCCOCCOCCC(=O)NCc1ccc(I)cc1)NC(=O)CC(CC(C)C)C(=O)NO (stereo not shown) [Compound 10]
- Ki (MMP-1): 23.9 nM
- Ki (MMP-2): 8.8 ± 3.1 nM
- Ki (MMP-12): 4.7 nM
- Ki (MMP-9): 2.85 ± 3.5 nM

Compound: CNC(=O)C(CCC(=O)NCCOCCOCCOCCOCCOCCOCCOCCOCCOCCOCCOCCOCCC(=O)NCc1ccc(I)cc1)NC(=O)C(CC(=O)NO)CC(C)C (stereo not shown) [Compound 12]
- Ki (MMP-1): 28.5 nM
- Ki (MMP-2): 21 ± 2.2 nM
- Ki (MMP-12): 8.3 nM
- Ki (MMP-9): 7.15 ± 3.32 nM

Further lines, results first:

- Ki (MMP-1): 1.77 nM
- Ki (MMP-2): 0.2 ± 0.11 nM
- Ki (MMP-12): 0.4 ± 0.04 nM
- Ki (MMP-9): 0.11 ± 0.08 nM
Compound: CNC(=O)[C@H](Cc1ccc(I)cc1)NC(=O)[C@@H](CC(=O)NO)CC(C)C [Compound 3]

- Ki (MMP-1): 1.57 ± 2.37 nM
Compound: CC(C)C[C@H](CC(=O)NO)C(=O)N[C@@H](Cc1c[nH]c2ccccc12)C(=O)NCc1ccc(I)cc1 [Compound 7]

- % ID/g Blood (ApoE ligation model; 5 min post injection): 9.9 % ID/g
- % ID/g Carotid (ApoE ligation model; 5 min post injection): 3.9 % ID/g
- % ID/g Heart (ApoE ligation model; 5 min post injection): 9.8 % ID/g
- % ID/g Blood (ApoE ligation model; 60 min post injection): 3.2 % ID/g
- % ID/g Carotid (ApoE ligation model; 60 min post injection): 1.4 % ID/g
- % ID/g Heart (ApoE ligation model; 60 min post injection): 2.2 % ID/g
- % Retained Carotid (ApoE ligation model; 60 min post injection): 36%
- % ID/g Blood (ApoE ligation model; 120 min post injection): 2.5 % ID/g
- % ID/g Carotid (ApoE ligation model; 120 min post injection): 1.4 % ID/g
- % ID/g Heart (ApoE ligation model; 120 min post injection): 1.5 % ID/g
- % Retained Carotid (ApoE ligation model; 120 min post injection): 37%
- Carotid: Blood (ApoE ligation model; 5 min post injection): 0.3
- Carotid: Heart (ApoE ligation model; 5 min post injection): 0.4
- Carotid: Blood (ApoE ligation model; 60 min post injection): 0.6
- Carotid: Heart (ApoE ligation model; 60 min post injection): 0.7
- Carotid: Blood (ApoE ligation model; 120 min post injection): 0.6
- Carotid: Heart (ApoE ligation model; 120 min post injection): 1.0
Compound: CC(C)C[C@H](CC(=O)N[C@@H](Cc1c[nH]c2ccccc12)C(=O)NCc1ccc([123I])cc1)C(=O)NO [Compound 6A]
